# In PubChem BioAssay AID1320 (NMMLSC, 2008):
# Activity calls are given as the source filed them. No rule for the calls is given here.
# Biological target: Bcl-2-related protein A1 (Homo sapiens) (UniProt Q16548)
# Assay: Bfl-1/Bim complex disruptors – biochemical, multiplexed, bead-based flow cytometry, dose response (AID 1320); as to percent span (inhibition): test concentration not given here
# Details: Bim peptide-Bfl-1 binding, fluorescence
# Bcl-2-related protein A1 (Homo sapiens), sequence (Q16548 whole entry, looked up): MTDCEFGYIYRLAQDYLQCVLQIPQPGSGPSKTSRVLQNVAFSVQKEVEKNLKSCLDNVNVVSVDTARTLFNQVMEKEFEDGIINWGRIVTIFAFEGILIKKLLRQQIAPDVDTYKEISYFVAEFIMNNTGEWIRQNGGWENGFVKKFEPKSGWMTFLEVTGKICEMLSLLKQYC
row,SMILES,EC50
1,Cc1cccc(N2C(S)=C(C#N)C(=O)NC2c2cccs2)c1 (centres undefined),inactive

# Same assay, conditions: Bim peptide-Bfl-1 binding, fluorescence
row,SMILES,percent span (inhibition)
1,CCOC(=O)CSc1nnc(-c2cccc(Cl)c2)n1CC,inactive
2,Cc1ccccc1-n1nc(SCC(=O)O)sc1=S,inactive
3,Cc1cc(-c2csc(N)n2)c(C)n1CCc1ccccc1,inactive
4,COC(=O)c1cc(OC)c(OC)cc1NC(=O)Nc1cccc(C(C)=O)c1,inactive
5,OCCC1CN(Cc2ccc3ncccc3c2)CCN1Cc1ccccc1 (centres undefined),inactive
6,CN(C(=O)NC1CCCCC1)c1ccccc1,inactive
7,COC(=O)CCC(=O)Nc1sc(C)c(C)c1C(N)=O,inactive
8,CCc1ccc(NC(=O)Cc2ccc(OC)cc2)cc1,inactive
9,Cc1ccnc(SCc2cc(=O)c(OC(=O)c3ccc(Cl)c([N+](=O)[O-])c3)co2)n1,inactive
10,COc1ccc(C2=Nn3c(nnc3-c3ccccn3)SC2)cc1OC,inactive
11,Cn1c(CNc2nc(-c3ccccc3)cs2)nnc1SCC(=O)N1CCc2ccccc21,inactive
12,O=S1(=O)N=C(N(CCO)/N=C/C=C/c2ccccc2)c2ccccc21,inactive
13,O=C1c2ccccc2-c2onc3ccc(NCc4ccco4)c1c23,inactive
14,Cc1ccc(CNc2ccc3c(c2)OCO3)c(C)c1,inactive
15,O=C(Nc1cccc(-c2ccc3nncn3n2)c1)c1ccco1,inactive
16,Oc1ccc(C=NCC2COc3ccccc3O2)cc1 (centres undefined),inactive
17,O=C(NCCCN1CCN(CCCNC(=O)c2cc([N+](=O)[O-])ccc2Cl)CC1)c1cc([N+](=O)[O-])ccc1Cl,inactive
18,CSc1n[nH]c2nc3c(c(=O)n12)C1(CCCC1)Cc1ccccc1-3,inactive
19,COc1ccc(CC(=O)Nc2ccc(C(=O)Nc3nccs3)cc2)cc1OC,inactive
20,COc1cc(/C=N/NC(=O)c2ccc([N+](=O)[O-])cc2Cl)cc(Br)c1O,inactive
21,Cc1cc(C)cc(NS(=O)(=O)c2ccc3c(c2)c(=O)n(C)c(=O)n3C)c1,inactive

row,SMILES,percent span (inhibition)
1,CNC(=S)N/N=C/C1=CCC2CC1C2(C)C (centres undefined),inactive
2,CC(C)(C)C1CCC(=NNC(=O)c2cc3c(s2)CCCC3)CC1 (centres undefined),inactive
3,CN1C(=O)/C(=C/c2ccc(-c3ccccc3[N+](=O)[O-])o2)SC1=Nc1ccc(Cl)c(C(=O)O)c1,inactive
4,Cc1cc(C)c(C)c(S(=O)(=O)N2CCN(CC(=O)NC(=O)NCc3ccccc3)CC2)c1C,inactive
5,Cc1ccc(C(NC(=O)C(C)C)c2cc([N+](=O)[O-])c3cccnc3c2O)cc1 (centres undefined),inactive
6,O=[N+]([O-])c1cccc(S(=O)(=O)NCC2CCCO2)c1 (centres undefined),inactive
7,CC(C)(C)c1nc(NCCN2CCOCC2)c2nnn(Cc3ccccc3Cl)c2n1,inactive
8,Cc1cc(Cl)c(S(=O)(=O)NCC2CCCO2)cc1OCC(N)=O (centres undefined),inactive
9,Cc1ccc(C(=O)N(CCCN(C)C)c2nc3ccc(Cl)cc3s2)cc1C,inactive
10,CS(=O)(=O)NN1C(=O)c2ccccc2NC1c1cccc2cccnc12 (centres undefined),inactive
11,Cc1nc2ccccc2n1CSc1ccccc1,inactive
12,CCn1c(SCC(=O)Nc2ccc(C)cc2)nnc1-c1ccc(O)cc1,inactive
13,COc1ccc(S(=O)(=O)NCCSc2ccc(Cl)cc2)cc1OC,inactive
14,CC1(C(=O)N(CC(=O)NC2CCCC2)Cc2ccco2)CC(=O)N=C2C=CC=CN21 (centres undefined),inactive
15,COc1ccc(OC)c(NC(=O)CCCN2C(=S)NC(C)(C)CC2C)c1 (centres undefined),inactive
16,CCCCCCn1nc(C(=O)Nc2nc3c(s2)CCCC3)c2ccccc2c1=O,inactive
17,Cc1ccccc1-n1c(SCc2cccc(F)c2)nc2[nH]ncc2c1=O,inactive
18,CCOC(=O)/C(=C\c1ccc(Cl)cc1)c1nc2sc(C)c(C)c2c(=O)[nH]1,inactive
19,O=C(C1=NN[C@@H]2C(=O)N(c3ccccc3C(F)(F)F)C(=O)[C@H]12)c1ccc2ccccc2n1,inactive
20,S=C(Nc1ccc(N2CCOCC2)cc1)Nc1ccc2nc(-c3ccco3)c(-c3ccco3)nc2c1,inactive
21,Cc1cccc(/C=N/N(CCO)C2=NS(=O)(=O)c3ccccc32)c1,inactive

row,SMILES,percent span (inhibition)
1,Cc1ccc2c(C)c(C(=O)Nc3nnc(C)s3)oc2c1,inactive
2,COC(=O)c1ccc(-n2nnnc2SCC(=O)Nc2cc(OC)ccc2OC)cc1,inactive
3,O=C(N/N=C/c1cccc([N+](=O)[O-])c1)c1cccs1,inactive
4,CN=c1scc(C)n1/N=C/c1ccc(O)c(O)c1O,inactive
5,C=CCn1c(C)c(C(C)=O)c(N2CCOCC2)nc1=S,inactive
6,Cc1ccnc(Nc2nc(-c3c(C)nc4sccn34)cs2)c1,inactive
7,CCOC(=O)c1c2c3c(c(Cl)ccc3[nH]c1=O)C(=O)c1ccccc1-2,inactive
8,O=[N+]([O-])c1ccc(-c2cn(-c3ccc(Cl)cc3)c(=S)[nH]2)cc1,inactive
9,COc1cccc2c(SCC(=O)N/N=C/c3ccccc3)cc(C)nc12,inactive
10,S=C(NCCc1ccccc1)NCCc1ccccc1,inactive
11,CN(/N=C/c1cccnc1)C1=NS(=O)(=O)c2ccccc21,inactive
12,C=CCn1c(C)cc(-c2csc(NC)n2)c1C,inactive
13,CCOC(=O)c1[nH]cnc1C(=O)NC(C)C,inactive
14,COCCNC(=S)Nc1cc(OC)c(OC)cc1C#N,inactive
15,S=C(Nc1ccccc1)N1CCn2cccc2C1c1cccnc1 (centres undefined),inactive
16,O=C(CSc1nnc(Cc2ccccc2)o1)NCc1ccco1,inactive
17,Nc1ccc(N2CCN(CCCCN3C(=O)C4CCCN4C3=O)CC2)cc1 (centres undefined),inactive
18,COc1cc(NC(=S)NCCCO)c(OC)cc1Cl,inactive
19,COc1ccccc1OCc1ccc(C(=O)Nc2ccccc2F)cc1,inactive
20,Cc1nc2ncccn2c1-c1csc(Nc2ccc(O)cc2)n1,inactive
21,COC(=O)c1sc(NC(=O)c2ccc(Cn3cc(Cl)cn3)o2)c(C#N)c1C,inactive
